{
  "source": "paper doi:10.1101/2024.02.16.580637v1",
  "about": "(biorxiv, 2024)",
  "assay_in_all_cases": "grating-coupled interferometry",
  "type_in_all_cases": "binding",
  "conditions_in_all_cases": "20 mM Tris/HCl pH 7.5, 150 mM NaCl; mass transport limitation model",
  "key": {"[1]": {"target": "T1, BtuG3 (Bacteroides thetaiotaomicron, UniProt Q8A5Z1, A261W)", "T1 sequence (Q8A5Z1 34-355 A261W)": "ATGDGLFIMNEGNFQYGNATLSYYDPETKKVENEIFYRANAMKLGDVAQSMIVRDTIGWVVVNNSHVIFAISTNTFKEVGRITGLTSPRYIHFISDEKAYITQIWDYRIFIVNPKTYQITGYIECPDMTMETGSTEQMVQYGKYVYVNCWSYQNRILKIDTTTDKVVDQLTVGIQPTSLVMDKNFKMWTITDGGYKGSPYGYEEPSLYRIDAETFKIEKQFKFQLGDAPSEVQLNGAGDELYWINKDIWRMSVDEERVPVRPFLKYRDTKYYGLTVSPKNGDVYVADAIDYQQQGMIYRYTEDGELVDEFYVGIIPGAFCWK"}, "[2]": {"target": "T2, BtuG1 (Bacteroides thetaiotaomicron, UniProt Q8A7N4)", "T2 sequence (Q8A7N4 28-442)": "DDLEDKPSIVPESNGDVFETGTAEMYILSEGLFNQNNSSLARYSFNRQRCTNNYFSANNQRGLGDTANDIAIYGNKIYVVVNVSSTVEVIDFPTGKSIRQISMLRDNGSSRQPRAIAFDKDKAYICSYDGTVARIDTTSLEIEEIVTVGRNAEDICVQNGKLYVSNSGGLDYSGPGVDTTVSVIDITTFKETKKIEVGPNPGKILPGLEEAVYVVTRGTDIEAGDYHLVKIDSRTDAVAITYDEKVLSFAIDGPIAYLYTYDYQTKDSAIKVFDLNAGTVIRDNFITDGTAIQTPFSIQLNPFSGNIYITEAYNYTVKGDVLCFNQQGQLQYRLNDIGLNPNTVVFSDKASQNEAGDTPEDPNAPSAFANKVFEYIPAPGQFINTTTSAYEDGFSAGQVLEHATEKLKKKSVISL"}, "[3]": {"target": "T3, BtuG3 (Bacteroides thetaiotaomicron, UniProt Q8A5Z1)", "T3 sequence (Q8A5Z1 34-355)": "T1 sequence (Q8A5Z1 34-355 A261W)"}, "[4]": {"target": "T4, BtuG2 (Bacteroides thetaiotaomicron, UniProt Q8A6D0)", "T4 sequence (Q8A6D0 47-366)": "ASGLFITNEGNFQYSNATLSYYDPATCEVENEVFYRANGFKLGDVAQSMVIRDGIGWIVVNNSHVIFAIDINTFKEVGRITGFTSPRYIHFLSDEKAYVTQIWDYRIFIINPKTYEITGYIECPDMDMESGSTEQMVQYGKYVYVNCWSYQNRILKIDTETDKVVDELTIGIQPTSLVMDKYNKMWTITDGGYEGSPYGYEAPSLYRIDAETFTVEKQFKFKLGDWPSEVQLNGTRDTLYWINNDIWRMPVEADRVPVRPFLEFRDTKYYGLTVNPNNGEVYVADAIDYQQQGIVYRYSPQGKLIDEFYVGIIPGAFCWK"}},
  "data": [
    {"smiles": "C/C1=C2/[N-][C@H]([C@H](CC(N)=O)[C@@]2(C)CCC(=O)NC[C@@H](C)OP(=O)([O-])O[C@H]2[C@@H](O)[C@@H](n3cnc4cc(C)c(C)cc43)O[C@@H]2CO)[C@]2(C)N=C(/C(C)=C3N=C(/C=C4N=C1[C@@H](CCC(N)=O)C\\4(C)C)[C@@H](CCC(N)=O)[C@]\\3(C)CC(N)=O)[C@@H](CCC(N)=O)[C@]2(C)CC(N)=O.[Co+3].[OH-]", "note": "[OHCbl, hydroxycobalamin]", "values": [
      {"measurement": "Kd", "setting": "[1]", "value": "1.4 · 10^-10 M"},
      {"measurement": "Kd", "setting": "[2]", "value": "3.0 · 10^-12 M"},
      {"measurement": "Kd", "setting": "[3]", "value": "2.8 · 10^-11 ± 3.9 · 10^-11 M"},
      {"measurement": "Kd", "setting": "[4]", "value": "2.2 · 10^-12 M"}
    ]}
  ]
}
